Data set [1] has as its system nucleoside hydrolase from Leishmania (L.) donovani. Also on record: method as in PMID 11738828. The settings on record: NH cloned in pET-22; cited from earlier work.
Another data set deals with NH of L. (L.) major. Also on record: method as in PMID 10409664. As to conditions: ref 13; cited from earlier work.
Data set [2] concerns Nucleoside hydrolase NH36 of L. (L.) donovani. In kind it is biochemical, Leishmania (L.) donovani. As to conditions: substrate of NH36; for k cat /K m: catalytic efficiency; for K m / k cat: 25°C, 50 mM Hepes pH 7.4. Here is the method: (§1) BL21DE3 E.coli were transformed with the synthetic plasmid pET 28b encoding the gene of NH36 of Leishmania (L.) donovani (EMBL, Genbank and DDJB data bases, access number AY007193) with a His6tag at the C-terminal. Expression was induced with 0.5 mM IPTG and overnight incubation at 20°C. Purification of NH36 was performed on a column of Ni-NTA Superflow resin (Qiagen, USA) eluted by a stepwise imidazole gradient and monitored by SDS-polyacrylamide gel electrophoresis and protein assay. The extinction coefficient of NH36 is 21.437 mM^-1 cm^-1 at 280 nm, as calculated with the ProtParam program from ExPASy, and was used to estimate protein concentration (http://ca.expasy.org/seqanalref/). The yield of NH36 after purification was 11.87 mg per Liter of bacterial growth culture. Non-specific His-proteins with weak interactions were eluted with 50–100 mM imidazole (S1 Fig). The purified NH36 started to elute with 150 mM imidazole. We used 250 mM of imidazol in elution buffer for purification of NH36.
Steady-state kinetic rates for NH36 were determined on the substrates inosine, guanosine, adenosine, uridine and cytidine. Hypoxanthine and adenine formation were coupled to xanthine oxidase (12.9 mM^-1 cm^-1 at 293 nm and 15.2 mM^-1 cm^-1 at 305 nm, respectively), and the others were followed by direct uv absorbance changes resulting from cleavage of the N-ribosidic bond. Reaction mixtures contained 50 mM Hepes (pH 7.4), 100 mM NaCl and 5 mM of DTT. One unit, and 0.1 unit of xanthine oxidase (XOD) were used as the coupling enzyme to the adenosine and inosine assays, respectively. Spectral changes for hydrolysis of guanosine, uridine and cytidine were 5.4 mM^-1 cm^-1 at 257 nm,1.8 mM^-1 cm^-1 at 280 nm and 1.8 mM^-1 cm^-1 at 288 nm, respectively. Variable concentrations of substrate and appropriate amounts of purified NH36 were added in all assays. The hydrolysis of nucleosides to bases and ribose was followed by continuous recording of optical absorbance after addition of the enzyme, in a CARY 300 UV-visible spectrophotometer. Control rates with no enzyme addition were subtracted from initial rates. Reactions with substrates were conducted at 25°C using 1 cm path length cuvettes containing 1 mL reaction volumes. Kinetic parameters of NH36 were obtained by fitting initial rates to the Michaelis−Menten equation using GraFit 5 (Erithacus Software).

Data set [3] in a line: Macrophage viability and cytotoxicity (Trypan Blue). The settings on record: female, BALB/c, mouse. Here is the method: Alternatively, the immucillins were added at 0, 24 and 48 h and viability assessed after 72h. […] The amastigote growth was assessed 24 h after the last drug addition, on 200 cells in Giemsa stained coverslips and expressed as phagocytic index = percent of infected macrophages x average number of intracellular amastigotes. […] All experiments with mice were reviewed and approved by the Animal Care and Use Committee of the Instituto de Biofísica Carlos Chagas Fo.-UFRJ (CAUAP-CONCEA, Brazil, IMPPG-016) and were performed according to the guidelines of the National Institutes of Health, USA. We made all efforts in order to minimize animal suffering.

In data set [4] the target is T1, Nucleoside hydrolase NH36 (Leishmania donovani, UniProt Q8WQX2).
T1 sequence (Q8WQX2 1-314): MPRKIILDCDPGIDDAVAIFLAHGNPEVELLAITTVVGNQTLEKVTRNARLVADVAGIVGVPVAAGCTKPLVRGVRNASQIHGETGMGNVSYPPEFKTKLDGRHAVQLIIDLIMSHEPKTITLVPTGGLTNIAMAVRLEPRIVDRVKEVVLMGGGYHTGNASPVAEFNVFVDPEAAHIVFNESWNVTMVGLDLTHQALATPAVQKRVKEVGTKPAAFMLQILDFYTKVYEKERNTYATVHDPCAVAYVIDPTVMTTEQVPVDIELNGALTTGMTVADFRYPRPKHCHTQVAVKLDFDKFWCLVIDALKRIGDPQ
Kind of data set: Ki determination: inhibition of NH36 activity by immucillins. The data set is classed as biochemical, Leishmania (L.) donovani. The settings on record: 10 mM inosine as substrate, 0.5 nM NH36, pH 7.4, room temperature. Here is the method: as §1
The reaction mixtures contained 10 mM inosine as substrate, 50 mM Hepes (pH 7.4), 100 mM KCl, 5 mM DTT and 1 unit XOD. The hydrolysis of inosine to hypoxanthine and ribose was followed by continuous reading of optical absorbance at 293 nm, using variable concentrations of inhibitors in a CARY 300UV-visible spectrophotometer. Controls without enzyme and without inhibitors were included in all inhibition assays. The inhibition constant for each immucillin was obtained, using GraFit 5 (Erithacus Software), by fitting initial rates with variable inhibitor concentrations to the equation (vi/v0 = [S] / Km + [S] + Km[I] / Ki), where v i is the initial rate in the presence of the inhibitor, v 0 is the initial rate in the absence of the inhibitor, K m is the Michaelis constant for inosine, [S] and [I] are inosine and inhibitor concentrations, respectively, and Ki is the inhibition constant.

Data set [5] concerns L. (L.) amazonensis promastigotes. Kind of data set: In vitro growth of promastigotes in FBS supplemented Schneider's insect medium. In kind it is cell-based, Leishmania (L.) amazonensis. The settings on record: Leishmania amazonensis; for inhibition at 500 µM: read-out: percent inhibition on L. (L.) amazonensis replication; for IC50: read-out: IC50 (CI 95%) on L. (L.) amazonensis promastigotes in vitro growth. The text has this: The strain of Leishmania (L.) infantum chagasi MHOM/BR/1974/PP75 was obtained from the Leishmania Type Culture Collection (Fundacão Oswaldo Cruz, Rio de Janeiro, RJ, Brazil) and the strain of Leishmania (L.) amazonensis (MHOM/BR/1975/Josefa) was kindly given by Professor Rosâ[…] from Universidade Federal do Rio de Janeiro. Promastigotes were maintained by weekly transfers in screw-capped glass tubes containing Schneider's insect medium (Sigma Aldrich, MO, USA), pH 7.0, supplemented with 10% Fetal Bovine Serum (FBS) at 26°C. Stock solutions (20 mM) of immucillins IA […] prepared using Milli-Q purified water. Log phase promastigotes of L. (L.) infantum chagasi and L. […] Promastigotes were recorded in a Neubauer chamber after 24, 48, 72 and 96 hours of incubation at 26°C. […] We also assayed the possibility of reversing the inhibitory effect of IA in RPMI medium by the addition of adenosine to the culture medium. The concentration of adenosine in Schneider s insect serum supplemented medium was assessed by HPLC using a C-18 reverse-phase column as described.

Data set [6] relates to L. (L.) infantum chagasi promastigotes. Kind of data set: Transmission electron microscopy of treated promastigotes. The data set is classed as cell-based, Leishmania (L.) infantum chagasi. As to conditions: 10 μM, 72 h. An excerpt: The cells were washed with Milli Q water, dehydrated in increasing concentration of acetone and embedded in Epon (1: 1) (PolyBed 812). The ultrathin sections were obtained, contrasted with 5% uranyl acetate and lead citrate and observed under a Joel 1200 electron microscope.

Data set [7] deals with intracellular amastigotes of L. (L.) infantum chagasi. Kind of data set: Replication of intracellular amastigotes in infected peritoneal macrophages (phagocytic index). In kind it is cell-based, Leishmania (L.) infantum chagasi. As to conditions: for EC50: Leishmania infantum, Peritoneal macrophage, read-out: EC50 (CI 95%); for decrease of intracellular amastigote parasite load: low micromolar concentrations, single to daily protocol. Here is the method: […] […] The amastigote growth was assessed 24 h after the last drug addition, on 200 cells in Giemsa stained coverslips and expressed as phagocytic index = percent of infected macrophages x average number of intracellular amastigotes. […] All experiments with mice were reviewed and approved by the Animal Care and Use Committee of the Instituto de Biofísica Carlos Chagas Fo.-UFRJ (CAUAP-CONCEA, Brazil, IMPPG-016) and were performed according to the guidelines of the National Institutes of Health, USA. We made all efforts in order to minimize animal suffering.

For data set [8], the system named is L. (L.) infantum chagasi promastigotes. Kind of data set: In vitro growth of promastigotes in FBS supplemented Schneider's insect medium. In kind it is cell-based, Leishmania (L.) infantum chagasi. An excerpt: The strain of Leishmania (L.) infantum chagasi MHOM/BR/1974/PP75 was obtained from the Leishmania Type Culture Collection (Fundacão Oswaldo Cruz, Rio de Janeiro, RJ, Brazil) and the strain of Leishmania (L.) amazonensis (MHOM/BR/1975/Josefa) was kindly given by Professor Rosâ[…] from Universidade Federal do Rio de Janeiro. Promastigotes were maintained by weekly transfers in screw-capped glass tubes containing Schneider's insect medium (Sigma Aldrich, MO, USA), pH 7.0, supplemented with 10% Fetal Bovine Serum (FBS) at 26°C. […] Log phase promastigotes of L. (L.) infantum chagasi and L. […] Promastigotes were recorded in a Neubauer chamber after 24, 48, 72 and 96 hours of incubation at 26°C. […] The concentration of adenosine in Schneider s insect serum supplemented medium was assessed by HPLC using a C-18 reverse-phase column as described.

Setting [9] is: 10 μM added daily at 0, 24 and 48 h.
Setting [10] is: single 10 μM dose at 0 h, compared to untreated controls.

Where two headings read alike, the source gives them in different places.

The source of these data is paper PMC4409337, “Immucillins Impair Leishmania (L.) infantum chagasi and Leishmania (L.) amazonensis Multiplication In Vitro” (PLoS ONE, 2015).

Usually Ki stands for the dissociation constant of the complex between target and ligand, obtained from inhibition or displacement. Low readings indicate tighter binding, high ones weaker binding. The term inhibition denotes how much of the control response was suppressed. As usually defined, the IC50 is the point on the concentration scale where inhibition reaches its midpoint. A word on the EC50: it is the concentration at which the effect is half-maximal.

For the molecule `O=c1[nH]cnc2c1ncn2[C@@H]1O[C@H](CO)[C@@H](O)[C@H]1O` [Inosine], in [1], the k cat is 7.6 s⁻¹. For the same molecule, the k cat in the data set on NH of L. (L.) major was 119 s⁻¹. For the same molecule, in data set [2], the “k cat /K m” value worked out at 31800 M⁻¹ s⁻¹, the K m came out at 340 ± 30 µM and the k cat was 10.8 ± 0.3 s ^-1.

Molecule `O=c1[nH]cnc2c(CNC(CO)CO)c[nH]c12` [SMIH] returned a CC50 at 48 h in data set [3] (peritoneal macrophages) of 800 µM. In data set [4], the Ki is > 5000 nM. Further, the inhibition at 0.05 µM in [5] (50 nM, after 96 h of culture, read-out: percent growth inhibition on L. (L.) amazonensis) came to 61%; in [8] (Leishmania infantum, 50 nM, after 96 h of culture, read-out: percent inhibition on L. (L.) infantum chagasi promastigote growth), 99%. Moreover, the inhibition at 500 µM in data set [5] (500 μM, after 96 h of culture) is 71%. Moreover, the concentration for half-maximal inhibition (IC50) was 0.007 µM in data set [5] (single addition at 0 h, evaluated after 48 hours, 26°C); 1 nM in data set [8] (Leishmania infantum, drugs added at 0, 24 and 48 h, after 48h, read-out: IC50 on promastigote growth, daily addition); < 0.01 nM in data set [8] (Leishmania infantum, drugs added at 0, 24 and 48 h, at 72 and 96 h, read-out: IC50 on promastigote growth, daily addition); 8 nM in data set [8] (Leishmania infantum, single addition at 0 h, evaluated after 48 hours, 26°C, read-out: IC50 (CI 95%) on L. (L.) infantum chagasi promastigotes in vitro growth). For the same molecule, the “effect on cellular ultrastructure of promastigotes” value in [6] is “complete alteration of their cellular morphology with intense cytoplasm vacuolization, enlarged vesicles and alterations in the kinetoplasts”. Further, the figures for the “reduction in the number of intracellular amastigotes” value in data set [7] (setting [9]) and in [7] (setting [10]) were 95% and 70%, respectively. Moreover, the EC50 in [7] (drugs (0.5–10 μM) added at 0 h, incubation 24 h, linear interpolation) came to 7.1 µM. In addition, in data set [7], the “decrease of intracellular amastigote parasite load” value was 74–95%. Also, the “reduction of the IC50 by daily addition compared to single addition” value in data set [8] (daily addition (0, 24, 48 h) vs single addition (Table 2), 48 h) was found to be 88%.

For `O=c1ccn([C@@H]2O[C@H](CO)[C@@H](O)[C@H]2O)c(=O)[nH]1` [Uridine], the k cat in [1] was 9.5 s⁻¹. Moreover, the k cat with NH of L. (L.) major is 32 s⁻¹. In addition, in data set [2], the “k cat /K m” value amounted to 16000 M⁻¹ s⁻¹, the K m is 2,100 ± 561 μM and the k cat came to 34.3 ± 4.2 s ^-1.

Consider `O=c1[nH]cnc2c([C@@H]3N[C@H](CO)[C@@H](O)[C@H]3O)c[nH]c12` [IH], for which the CC50 at 48 h in [3] was 950 µM. The Ki in data set [4] is 19 nM. Further, in [5] (96 h), the inhibition at 500 µM came to 71%. For the same molecule, the IC50 in [5] is 49.7 µM; in data set [8] (Leishmania infantum, read-out: IC50 (CI 95%) on L. (L.) infantum chagasi promastigotes in vitro growth, single addition at 0 h, evaluated after 48 hours, 26°C), 30600 nM; in [8] (Leishmania infantum, read-out: IC50 on promastigote growth, daily addition, drugs added at 0, 24 and 48 h, after 48h), 6700 nM; in data set [8] (Leishmania infantum, read-out: IC50 on promastigote growth, daily addition, drugs added at 0, 24 and 48 h, at 72 and 96 h) it was < 50 nM. Besides, the “effect on cellular ultrastructure of promastigotes” value in data set [6] is “alterations and swelling of kinetoplasts”. The “reduction in the number of intracellular amastigotes” value is reported as 95% in data set [7] (setting [9]) and 70% in data set [7] (setting [10]). Besides, the EC50 in data set [7] stood at 3.69 µM. For the same molecule, the “decrease of intracellular amastigote parasite load” value in data set [7] is given as 74–95%.
